The nature of experiment [1]: Enhancement activity of adjuvant in DHA/glycine solution, color change by colorimeter. To be noted: adjuvant 0.5-2 wt.% in solution with DHA and glycine. The source says: A control solution was made as follows: Mixing vials were charged with 2.5 weight percent glycine, 2.5 percent by weight DHA and 0.2 M citric/citrate buffer solution to produce the desired control solution, pH 5.6. The balance of the control solutions was water. Compositions consistent with the invention were made as follows: about 0.5 to 2.0 weight percent adjuvant, 2.5 weight percent DHA and 2.5 weight percent glycine were combined, resulting in compositions consistent with this invention with water as the balance. The initial pH of the resulting adjuvant comprising solution was measured and adjusted with NaOH or citric acid, if necessary, to yield an adjuvant comprising solution, pH of about 5.6. The solutions were placed in a 35° C. oven and color change was assessed visually (by taking photos) and by measuring L*a*b* values utilizing a conventional colorimeter. L*a*b* values of the solutions were measured and assessed as set forth below.
Enhancement activity of pyrrole-2-carboxylic acid in solution was carried out on the solutions described in Table 2 and the color of the reaction system was detected and assessed with a colorimeter.
Delta L* was used to characterize color change whereby the larger Delta L* value reflects darker coloring. […] Pyrrole-2-carboxylic acid, therefore, is believed to catalyze the DHA/glycine Maillard reaction.

The nature of experiment [2]: Enhancement activity of adjuvant in DHA composition on artificial skin (VitroSkin), color by colorimeter. To be noted: for color enhancement activity on artificial skin (in words): adjuvant 0.5-2 wt.% in composition with DHA; for color quality (delta a*/delta b*, visual examination) in words: composition with DHA on artificial skin. The procedure:
General procedure for in vitro testing: DHA, 2.5 weight percent, and 0.5 to 2.0 weight percent adjuvant were formulated into the base (as described in Table 1). About 20 mg of resulting composition was applied to VitroSkin® made available from IMS Company and applied in a circular pattern having a diameter around 2.4 cm. The artificial skin was pre-hydrated under 50% RH for 24 hours before use, and the skin was kept at a temperature of 35° C. under constant relative humidity (RH, 50%). Color development was evaluated with a colorimeter as defined below.
Enhancement activity of pyrrole-2-carboxylic acid was carried out on artificial skin when formulated in a ready-to-use composition with ingredients as described in Table 4 and color was detected and assessed with a colorimeter.

Each structure is given as a SMILES string. Entries after “also recorded” stand apart in the source; their conditions may differ.

With `Cn1cccc1C(=O)O` [1-methyl-2-pyrrolecarboxylic acid], the “DHA enhancement activity / color enhancement in solution (in words)” value in experiment [1] is listed as “excellent DHA enhancement activity”. For the same compound, in experiment [2], the “color enhancement activity on artificial skin (in words)” value (“color enhancement activity” below) is “color enhancement activity; also recorded: excellent DHA enhancer” and the “color quality (delta a*/delta b*, visual examination) in words” value is given as “more natural color via visual examination; also recorded: better than that of the control at all concentrations tested”.
On to `O=C(O)c1cc2ccccc2[nH]1` [1H-indole-2-carboxylic acid], for which the “DHA enhancement activity / color enhancement in solution (in words)” value in experiment [1] is recorded as “excellent color enhancement”; in experiment [1] (listed as 1-H-indole-2-carboxylic acid), “excellent coloring properties”.
With `CC(=O)c1cccn1C` [2-acetyl-1-methylpyrrole], the “DHA enhancement activity / color enhancement in solution (in words)” value in experiment [1] is “surprisingly good color enhancement”. Further, in experiment [2], the “color enhancement activity” value was “color enhancement of artificial skin”.
For the compound `CC(=O)c1ccco1` [2-acetylfuran], the “color enhancement activity” value in experiment [2] was “color enhancement of artificial skin”.
`CC(=O)c1ccc[nH]1` [2-acetylpyrrole]: the “DHA enhancement activity / color enhancement in solution (in words)” value in experiment [1] is recorded as “surprisingly good color enhancement”. The “color enhancement activity” value in experiment [2] is reported as “color enhancement of artificial skin”.
Regarding `O=C(O)c1ccco1` [2-furoic acid], the “color enhancement activity” value in experiment [2] is reported as “color enhancement of artificial skin”.
`O=C(CO)CO` [DHA, 1,3-dihydroxy-2-propanone, reference compound]: the “color quality (delta a*/delta b*, visual examination) in words” value in experiment [2] is listed as “yellowish”.
As for `COC(=O)c1ccc[nH]1` [methyl-2-pyrrole carboxylate], the “DHA enhancement activity / color enhancement in solution (in words)” value in experiment [1] is “surprisingly good color enhancement”.
For the compound `O=C(O)c1ccc[nH]1` [pyrrole-2-carboxylic acid], in experiment [1], the “DHA enhancement activity / color enhancement in solution (in words)” value was “significantly enhanced DHA activity at all concentrations tested”. In experiment [2], the “color enhancement activity” value is “DHA color enhancement activity at all tested concentrations”; the “color quality (delta a*/delta b*, visual examination) in words” value is “longer lasting and more natural color”.
